This note sets out measurements from patent US11691986B2, “PTEFB inhibiting macrocyclic compounds” (Bayer Aktiengesellschaft, priority 2017, dated 2023).

One may read the residence time as the mean lifetime of the complex, commonly the reciprocal of the off-rate. As a reminder, the Kd is the free concentration of one partner at which half of the binding sites on the other are occupied at equilibrium, for simple one-to-one binding. For orientation: koff means a measure of how fast the partners let go of each other.

One assay has as its system A2780 cells. Put plainly: Proliferation assay, A2780 (Cell Titre-Glo). The format is cell-based. The settings on record: Homo sapiens; A2780, 72-hour exposure; read-out: Inhibition of A2780 cell proliferation IC50. As to the method: A2780 human ovarian carcinoma cells (ECACC #93112519) and non-adherent MOLM-13 human acute myeloid leukemia cells (DSMZ ACC 554) were seeded at a density of 3,000 cell/well (A2780) or 5,000 cells/well (MOLM-13) in a 96-well multititer plate in 150 μL of growth medium supplemented 10% fetal calf serum. After 24 hours, cell viability of one plate (zero-point plate) was determined with the Cell Titre-Glo Luminescent Cell Viability Assay (Promega), while the medium of the other plates was supplemented with the test substances in various concentrations (0 μM, as well as in the range of 0.0001-10 μM; the final concentration of the solvent dimethyl sulfoxide was adjusted to 0.1%) using a Hewlett-Packard HP D300 Digital Dispenser. Cell viability was assessed after 72-hour exposure with the Cell Titre-Glo Luminescent Cell Viability Assay (Promega). IC50 values (inhibitory concentration at 50% of maximal effect) were determined by means of a 4 parameter fit on measurement data which were normalized to vehicle (DMSO) treated cells (=100%) and measurement readings taken immediately before compound exposure (=0%).

Assay [1] has as its target T1, human PTEFb (CDK9/Cyclin T1) (Homo sapiens, UniProt P50750).
T1 construct: purchased ProQinase, Freiburg, Germany
In words: Surface Plasmon Resonance PTEFb. The format is binding. The settings on record: SPR, 37° C.; for residence time: 1/koff, read-out: Target residence time; for residence time / koff: * = arithmetic mean; for Kd: * = arithmetic mean of more than one value, read-out: Equilibrium dissociation constant KD; for koff: < = below what is resolvable, read-out: Dissociation rate constant koff. The text has this: 8. Surface Plasmon Resonance PTEFb
The ability of the compounds according to the invention to bind human PTEFb may be determined using surface plasmon resonance (SPR). KD values and koff values may be measured using a Biacore® T200 instrument (GE Healthcare, Uppsala, Sweden).
For SPR measurements, recombinant human PTEFb (CDK9/Cyclin T1 recombinant human active protein kinase purchased from ProQinase, Freiburg, Germany) is immobilized using standard amine coupling (Johnsson B et al, Anal Biochem. 1991 Nov. 1; 198(2):268-77). Briefly, carboxymethylated dextran biosensor chips (CM7, GE Healthcare) are activated with N-ethyl-N′-(3-dimethylaminopropyl)-carbodiimide hydrochloride (EDC) and N-hydroxysuccinimide (NHS) according to the supplier's instructions. Human PTEFb is diluted in 1×HBS-EP+(GE Healthcare) and injected on the activated chip surface. Subsequently, a 1:1 solution of 1 M ethanolamine-HCl (GE Healthcare) and 1×HBS-EP is injected to block unreacted groups, resulting in approximately 4000 response units (RU) of immobilized protein. A reference surface is generated by treatment with NHS-EDC and ethanolamine-HCl. Compounds are dissolved in 100% dimethylsulfoxide (DMSO, Sigma-Aldrich, Germany) to a concentration of 10 mM and subsequently diluted in running buffer (1×HBS-EP+pH 7.4 [generated from HBS-EP+Buffer 10×(GE Healthcare): 0.1 M HEPES, 1.5 M NaCl, 30 mM EDTA and 0.5% v/v Surfactant P20], 1% v/v DMSO). For kinetic measurements, serial dilutions of compound (0.078 nM up to 25 nM) are injected over immobilized protein. Binding kinetics is measured at 37° C. with a flow rate of 100 μl/min in running buffer. Compound concentrations are injected for 70 s followed by a dissociation time of 1100 s. The resulting sensorgrams are double-referenced against the reference surface as well as against blank injections.
The double-referenced sensorgrams are fit to a simple reversible Langmuir 1:1 reaction mechanism as implemented in the Biacore® T200 evaluation software 2.0 (GE Healthcare). In cases were full compound dissociation has not occurred at the end of the dissociation phase, the Rmax parameter (response at saturation) is fit as local variable. In all other cases, Rmax is fit as global variable.

A further assay deals with HeLa cells. Put plainly: Proliferation assay, HeLa (crystal violet). The settings on record: Homo sapiens, 96 h, 4 days, read-out: Inhibition of HeLa cell proliferation IC50. The format is cell-based. As to the method:
(§1) Cultivated tumour cells (HeLa, human cervical tumour cells, ATCC CCL-2; NCI-H460, human non-small cell lung carcinoma cells, ATCC HTB-177; DU 145, hormone-independent human prostate carcinoma cells, ATCC HTB-81; HeLa-MaTu-ADR, multidrug-resistant human cervical carcinoma cells, EPO-GmbH Berlin; Caco-2, human colorectal carcinoma cells, ATCC HTB-37; B16F10, mouse melanoma cells, ATCC CRL-6475) were plated at a density of 5,000 cells/well (DU145, HeLa-MaTu-ADR), 3,000 cells/well (NCI-H460, HeLa), 1,500 cells/well (Caco-2), or 1,000 cells/well (B16F10) in a 96-well multititer plate in 200 μL of their respective growth medium supplemented 10% fetal calf serum. After 24 hours, the cells of one plate (zero-point plate) were stained with crystal violet (see below), while the medium of the other plates was supplemented with the test substances in various concentrations (0 μM, as well as in the range of 0.0001-10 μM; the final concentration of the solvent dimethyl sulfoxide was adjusted to 0.1%) using a Hewlett-Packard HP D300 Digital Dispenser. The cells were incubated for 4 days in the presence of test substances. Cell proliferation was determined by staining the cells with crystal violet: the cells were fixed by adding 20 μl/measuring point of an 11% glutaric aldehyde solution for 15 minutes at room temperature. After three washing cycles of the fixed cells with water, the plates were dried at room temperature. The cells were stained by adding 100 μl/measuring point of a 0.1% crystal violet solution (pH 3.0). After three washing cycles of the stained cells with water, the plates were dried at room temperature. The dye was dissolved by adding 100 μl/measuring point of a 10% acetic acid solution. The extinction was determined by photometry at a wavelength of 595 nm. The change of cell number, in percent, was calculated by normalization of the measured values to the extinction values of the zero-point plate (=0%) and the extinction of the untreated (0 Wm) cells (=100%). The IC50 values (inhibitory concentration at 50% of maximal effect) were determined by means of a 4 parameter fit.

The next assay deals with B16F10 cells. In words: Proliferation assay, B16F10 (crystal violet). Format: cell-based. Conditions: Mus musculus, B16-F10, 96 h; B16F10, 4 days; read-out: Inhibition of B16F10 cell proliferation IC50. As to the method:
as §1

T1 sequence (P50750 whole entry): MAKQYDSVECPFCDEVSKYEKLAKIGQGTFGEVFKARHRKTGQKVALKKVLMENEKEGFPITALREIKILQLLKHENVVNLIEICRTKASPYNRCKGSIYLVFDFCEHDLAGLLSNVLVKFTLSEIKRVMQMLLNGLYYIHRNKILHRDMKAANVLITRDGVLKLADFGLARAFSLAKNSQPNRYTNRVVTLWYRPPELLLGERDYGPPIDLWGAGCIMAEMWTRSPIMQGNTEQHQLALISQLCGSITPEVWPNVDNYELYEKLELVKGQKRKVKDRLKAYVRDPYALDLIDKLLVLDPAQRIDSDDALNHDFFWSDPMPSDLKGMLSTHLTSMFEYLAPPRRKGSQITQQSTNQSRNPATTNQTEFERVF
T1 sequence (O60563 whole entry partner): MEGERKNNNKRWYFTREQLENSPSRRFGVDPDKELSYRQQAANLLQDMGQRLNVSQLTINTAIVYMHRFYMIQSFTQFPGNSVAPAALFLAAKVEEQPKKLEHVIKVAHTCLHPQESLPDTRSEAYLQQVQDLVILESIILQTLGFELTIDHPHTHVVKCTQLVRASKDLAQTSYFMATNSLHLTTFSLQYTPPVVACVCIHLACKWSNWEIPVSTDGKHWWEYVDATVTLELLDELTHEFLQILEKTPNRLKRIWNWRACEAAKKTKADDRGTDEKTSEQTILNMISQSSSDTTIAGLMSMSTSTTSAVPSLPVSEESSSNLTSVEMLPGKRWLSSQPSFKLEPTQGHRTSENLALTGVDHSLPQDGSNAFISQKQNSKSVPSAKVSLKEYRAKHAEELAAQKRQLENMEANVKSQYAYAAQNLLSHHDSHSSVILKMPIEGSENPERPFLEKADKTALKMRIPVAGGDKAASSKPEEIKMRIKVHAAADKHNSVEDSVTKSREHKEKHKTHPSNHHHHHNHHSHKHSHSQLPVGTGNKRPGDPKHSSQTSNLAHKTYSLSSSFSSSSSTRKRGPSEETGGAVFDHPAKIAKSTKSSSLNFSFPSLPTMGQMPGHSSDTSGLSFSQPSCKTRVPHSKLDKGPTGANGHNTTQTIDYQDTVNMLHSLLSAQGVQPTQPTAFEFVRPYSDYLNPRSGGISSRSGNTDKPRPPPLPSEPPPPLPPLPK

For `CC1CCCNc2cc(ccc2F)-c2nc(ncc2F)Nc2cc(CS(C)(=O)=O)cc(c2)O1` (racemic) [Example 8, (rac)-3,20-difluoro-14-methyl-10-[(methylsulfonyl)methyl]-13-oxa-5,7,18,25-tetraazatetracyclo[17.3.1.1^2,6.1^8,12]pentacosa-1(23),2(25),3,5,8(24),9,11,19,21-nonaene], the IC50 with A2780 cells came out at 7.7 nM. Also, in assay [1], the residence time turned out to be 33 min, the Kd is 0.28 nM and the koff stood at 0.0005 s⁻¹.

Regarding `CS(=N)(=O)Cc1cc2cc(c1)OCCCNc1cc(ccc1F)-c1nc(ncc1F)N2` (racemic) [Example 3, (rac)-3,19-difluoro-10-[(S-methylsulfonimidoyl)methyl]-13-oxa-5,7,17,24-tetraazatetracyclo[16.3.1.1^2,6.1^8,12]tetracosa-1(22),2(24),3,5,8(23),9,11,18,20-nonaene], the IC50 in the assay on A2780 cells came out at 5.9 nM. Also, in assay [1], the residence time was 13 min, the Kd was 0.38 nM and the koff turned out to be 0.0012 s⁻¹. Besides, the IC50 in the assay with HeLa cells amounted to 15 nM. In addition, in the assay on B16F10 cells, the IC50 is 25 nM.

With `CS(=N)(=O)Cc1cc2cc(c1)OCCCCNc1cc(ccc1F)-c1nc(ncc1F)N2` (racemic) [Example 2, (rac)-3,20-difluoro-10-[(S-methylsulfonimidoyl)methyl]-13-oxa-5,7,18,25-tetraazatetracyclo[17.3.1.1^2,6.1^8,12]pentacosa-1(23),2(25),3,5,8(24),9,11,19,21-nonaene], the results for the IC50 in the assay on A2780 cells, in the assay with HeLa cells and with B16F10 cells were 1.2 nM, 4.4 nM and 1.2 nM, respectively. Besides, in assay [1], the residence time is > 208 min. Also, in assay [1], the Kd came to 0.074 nM. The dissociation rate constant (koff) in assay [1] was < 8e-05 s⁻¹.

For `CC(C)(C)OC(=O)N=S(C)(=O)Cc1cc2cc(c1)OCCCCNc1cc(ccc1F)-c1nc(ncc1F)N2` (racemic) [Example 1, (rac)-tert-butyl [{[3,20-difluoro-13-oxa-5,7,18,25-tetraazatetracyclo[17.3.1.1^2,6.1^8,12]pentacosa-1(23),2(25),3,5,8(24),9,11,19,21-nonaen-10-yl]methyl}(methyl)oxido-λ^6-sulfanylidene]carbamate], the results for the IC50 with A2780 cells, in the assay on HeLa cells and in the assay with B16F10 cells were 13 nM, 40 nM and 99 nM, respectively.
